Consider 13 molecules from patent US20230093099A1, “COMPOUNDS AND METHODS OF TREATING CANCERS” (CULLGEN (SHANGHAI), INC., priority 2019, published 2023).

In one test the test system is RS4;11 cells. Put plainly: Cell viability assay (CellTiter-Glo) in RS4;11 cells. The settings on record: Homo sapiens, 72 h; RS4;11 ALL cells treated for three days; read-out: cell viability inhibition IC50. In kind it is cell-based. An outline of the steps:
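Three-day compound treatment of RS4;11 ALL cells (5000/well, 3-fold dilution series of 8 or 12 points), with IC50 from a nonlinear least-squares fit to CellTiter-Glo viability data.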
Take `CS(=O)(=O)c1ccc(-c2cccc3nc(Nc4ccc(N5CCN(CC(=O)NCCCCCCCNc6ccc7c(c6)C(=O)N(C6CCC(=O)NC6=O)C7=O)CC5)cc4)nn23)cc1` (centres unmarked) [JA-214]: the IC50 was below 100 nM.

Staying with this test, now noted: Homo sapiens, 72 h; RS4;11 cells; cell viability, 3 days, CellTiter-Glo; read-out: IC50.
For `Cc1ncsc1-c1ccc(CNC(=O)[C@@H]2C[C@@H](O)CN2C(=O)[C@@H](NC(=O)CCCNC(=O)CN2CCC(n3cc(-c4cnc5cccc(-c6cc(F)c(CN7CCOCC7)c(F)c6)c5n4)cn3)CC2)C(C)(C)C)cc1` [JA-152, (2S,4R)-1-((S)-2-(4-(2-(4-(4-(8-(3,5-Difluoro-4-(morpholinomethyl)phenyl)quinoxalin-2-yl)-1H-pyrazol-1-yl)piperidin-1-yl)acetamido)butanamido)-3,3-dimethylbutanoyl)-4-hydroxy-N-(4-(4-methylthiazol-5-yl)benzyl)pyrrolidine-2-carboxamide], the IC50 is above 10000 nM.

On to `Cc1ncsc1-c1ccc(CNC(=O)[C@@H]2C[C@@H](O)CN2C(=O)[C@@H](NC(=O)CCOCCNC(=O)CN2CCN(c3ccc(Nc4nc5cccc(-c6ccc(S(C)(=O)=O)cc6)n5n4)cc3)CC2)C(C)(C)C)cc1` [JA-136, (2S,4R)-1-((S)-3,3-Dimethyl-2-(3-(2-(2-(4-(4-((5-(4-(methylsulfonyl)phenyl)-[1,2,4]triazolo[1,5-a]pyridin-2-yl)amino)phenyl)piperazin-1-yl)acetamido)ethoxy)propanamido)butanoyl)-4-hydroxy-N-(4-(4-methylthiazol-5-yl)benzyl)pyrrolidine-2-carboxamide], for which the IC50 was above 10000 nM.

On to `Cc1cnc(Nc2ccc(N3CCN(CC(=O)NCCCC(=O)N[C@H](C(=O)N4C[C@H](O)C[C@H]4C(=O)NCc4ccc(-c5scnc5C)cc4)C(C)(C)C)CC3)cc2)nc1Nc1cccc(S(=O)(=O)NC(C)(C)C)c1` [JA-099, (2S,4R)-1-((S)-2-(4-(2-(4-(4-((4-((3-(N-(tert-Butyl)sulfamoyl)phenyl)amino)-5-methylpyrimidin-2-yl)amino)phenyl)piperazin-1-yl)acetamido)butanamido)-3,3-dimethylbutanoyl)-4-hydroxy-N-(4-(4-methylthiazol-5-yl)benzyl)pyrrolidine-2-carboxamide], for which the IC50 was found to be 3700 nM.

For `CS(=O)(=O)c1ccc(-c2cccc3nc(Nc4ccc(N5CCN(CC(=O)NCCCCCCCNc6ccc7c(c6)C(=O)N(C6CCC(=O)NC6=O)C7=O)CC5)cc4)nn23)cc1` (centres unmarked) [JA-214], the IC50 came out at 63.5 nM.

Take `CS(=O)(=O)c1ccc(-c2cccc3nc(Nc4ccc(N5CCN(C(=O)CCCCCCn6c(=O)n(C7CCC(=O)NC7=O)c7ccccc76)CC5)cc4)nn23)cc1` (centres unmarked) [JA-281, 3-(3-(7-(4-(4-((5-(4-(Methylsulfonyl)phenyl)-[1,2,4]triazolo[1,5-a]pyridin-2-yl)amino)phenyl)piperazin-1-yl)-7-oxoheptyl)-2-oxo-2,3-dihydro-1H-benzo[d]imidazol-1-yl)piperidine-2,6-dione]: the IC50 is above 500 nM.

As for `Cc1cnc(Nc2ccc(N3CCN(C(=O)CCNc4ccc5c(c4)C(=O)N(C4CCC(=O)NC4=O)C5=O)CC3)cc2)nc1Nc1cccc(S(=O)(=O)NC(C)(C)C)c1` (centres unmarked) [JA-226, N-(tert-butyl)-3-((2-((4-(4-(3-((2-(2,6-dioxopiperidin-3-yl)-1,3-dioxoisoindolin-5-yl)amino)propanoyl)piperazin-1-yl)phenyl)amino)-5-methylpyrimidin-4-yl)amino)benzenesulfonamide], the IC50 is 365 nM.

As to `CS(=O)(=O)c1ccc(-c2cccc3nc(Nc4ccc(N5CCN(CC(=O)NCCCCNc6ccc7c(c6)C(=O)N(C6CCC(=O)NC6=O)C7=O)CC5)cc4)nn23)cc1` (centres unmarked) [JA-205, N-(4-((2-(2,6-Dioxopiperidin-3-yl)-1,3-dioxoisoindolin-5-yl)amino)butyl)-2-(4-(4-((5-(4-(methylsulfonyl)phenyl)-[1,2,4]triazolo[1,5-a]pyridin-2-yl)amino)phenyl)piperazin-1-yl)acetamide], the IC50 was 676 nM.

With `O=C1CCC(N2C(=O)c3ccc(OCCCCCCN4CCC(n5cc(-c6cnc7cccc(-c8cc(F)c(CN9CCOCC9)c(F)c8)c7n6)cn5)CC4)cc3C2=O)C(=O)N1` (centres unmarked) [JA-267, 5-((6-(4-(4-(8-(3,5-Difluoro-4-(morpholinomethyl)phenyl)quinoxalin-2-yl)-1H-pyrazol-1-yl)piperidin-1-yl)hexyl)oxy)-2-(2,6-dioxopiperidin-3-yl)isoindoline-1,3-dione], the IC50 amounted to 426 nM.

On to `CS(=O)(=O)c1ccc(-c2cccc3nc(Nc4ccc(N5CCN(CC(=O)NCCCCCNc6ccc7c(c6)C(=O)N(C6CCC(=O)NC6=O)C7=O)CC5)cc4)nn23)cc1` (centres unmarked) [JA-204, N-(5-((2-(2,6-Dioxopiperidin-3-yl)-1,3-dioxoisoindolin-5-yl)amino)pentyl)-2-(4-(4-((5-(4-(methylsulfonyl)phenyl)-[1,2,4]triazolo[1,5-a]pyridin-2-yl)amino)phenyl)piperazin-1-yl)acetamide], for which the half-inhibitory concentration (IC50) is above 10000 nM.

Turning to `Cc1cnc(Nc2ccc(N3CCN(CC(=O)NCCC(=O)N[C@H](C(=O)N4C[C@H](O)C[C@H]4C(=O)NCc4ccc(-c5scnc5C)cc4)C(C)(C)C)CC3)cc2)nc1Nc1cccc(S(=O)(=O)NC(C)(C)C)c1` [JA-098, (2S,4R)-1-((S)-2-(3-(2-(4-(4-((4-((3-(N-(tert-Butyl)sulfamoyl)phenyl)amino)-5-methylpyrimidin-2-yl)amino)phenyl)piperazin-1-yl)acetamido)propanamido)-3,3-dimethylbutanoyl)-4-hydroxy-N-(4-(4-methylthiazol-5-yl)benzyl)pyrrolidine-2-carboxamide], the IC50 is above 10000 nM.

For the molecule `Cc1ncsc1-c1ccc(CNC(=O)[C@@H]2C[C@@H](O)CN2C(=O)[C@@H](NC(=O)COCCOCCNC(=O)CN2CCC(n3cc(-c4cnc5cccc(-c6cc(F)c(CN7CCOCC7)c(F)c6)c5n4)cn3)CC2)C(C)(C)C)cc1` [JA-163, (2S,4R)-1-((S)-2-(tert-Butyl)-14-(4-(4-(8-(3,5-difluoro-4-(morpholinomethyl)phenyl)quinoxalin-2-yl)-1H-pyrazol-1-yl)piperidin-1-yl)-4,13-dioxo-6,9-dioxa-3,12-diazatetradecanoyl)-4-hydroxy-N-(4-(4-methylthiazol-5-yl)benzyl)pyrrolidine-2-carboxamide], the IC50 is above 10000 nM.

`O=C1CCC(n2c(=O)n(CCCCCC(=O)N3CCC(n4cc(-c5cnc6cccc(-c7cc(F)c(CN8CCOCC8)c(F)c7)c6n5)cn4)CC3)c3ccccc32)C(=O)N1` (centres unmarked) [JA-278, 3-(3-(6-(4-(4-(8-(3,5-Difluoro-4-(morpholinomethyl)phenyl)quinoxalin-2-yl)-1H-pyrazol-1-yl)piperidin-1-yl)-6-oxohexyl)-2-oxo-2,3-dihydro-1H-benzo[d]imidazol-1-yl)piperidine-2,6-dione]: the IC50 is above 500 nM.

For `Cc1ncsc1-c1ccc(CNC(=O)[C@@H]2C[C@@H](O)CN2C(=O)[C@@H](NC(=O)CCOCCOCCOCCOCCOCCNC(=O)CN2CCC(n3cc(-c4cnc5cccc(-c6cc(F)c(CN7CCOCC7)c(F)c6)c5n4)cn3)CC2)C(C)(C)C)cc1` [JA-159, (2S,4R)-1-((S)-23-(tert-Butyl)-1-(4-(4-(8-(3,5-difluoro-4-(morpholinomethyl)phenyl)quinoxalin-2-yl)-1H-pyrazol-1-yl)piperidin-1-yl)-2,21-dioxo-6,9,12,15,18-pentaoxa-3,22-diazatetracosan-24-oyl)-4-hydroxy-N-(4-(4-methylthiazol-5-yl)benzyl)pyrrolidine-2-carboxamide], the IC50 was above 10000 nM.
